Measurements published in US20100279941A1, “CD36 MODULATION AND USES THEREOF” (priority 2009, published 2010).

How the values were obtained:
[1] = system: CD36^+/+ and CD36^−/− mice; assay: Ventricular and ejection volumes by ECG-gated μPET after transient myocardial ischemia; format: in vivo; details: EP 80317-treated WT mice vs 0.9% NaCl
Protocol: (§1) Experimental model of IHD: Transient left coronary artery ligation in vivo. Mice were subjected to a transient LCAL surgery as described before, with minor modifications [Tarnayski et al., 2004]. Mice were injected i.p. with buprenorphine (0.05 mg/kg) and placed in an induction chamber with inhalation anesthesia comprised of 3% isoflurane mixed with 100% oxygen. Mice were intubated with a blunt ended 20-gauge catheter into the trachea via the mouth and mechanically ventilated at a tidal volume of 7 ml/kg at 130 respirations/min with a MiniVent™ mouse ventilator (model 845, Harvard Apparatus, Saint-Laurent, QC, Canada). Anesthesia was maintained with 1.5-2% isoflurane and the animals were kept warm using electrical heating pads during the surgical procedure. The chest was opened by a horizontal incision through the skin and muscle layers at the third intercostal space exposing the left side of the heart. […] Visual blanching distal to the coronary occlusion confirmed myocardial ischaemia. Lidocaine (6 mg/kg) was administered i.p. just following occlusion and prior to reperfusion. After 30 minutes, the PE10 tubing was removed allowing reperfusion. The lungs were reinflated and the chest wound closed layer by layer before extubation. At 6 hours following reperfusion, mice were anesthetized (isoflurane), a blood sample withdrawn, and the heart arrested in diastole by an intravenous injection of 1 M KCl (0.5 mL). Hearts were immediately frozen at −80° C. unless otherwise stated.
Imaging experiments. Imaging experiments were performed with the avalanche photodiode-based small animal PET scanner (μPET) [Lecomte et al., 1996]. Before imaging, the heart position was localized with a Doppler probe (0.64 cm, 9 MHz; Parks Medical Electronics). […]
(§2) Imaging Data Analysis. For [^11C]-acetate images, dynamic series of 25 frames each were sorted out whereas 27 frames were used for ^18FDG and ^18FTHA imaging, and were reconstructed and analyzed using multicompartmental analysis [Menard et al., 2009] or the Patlak method for FTHA [Patlak and Blasberg, 1985]. […]

[2] = Plasma cholesterol, triglyceride, NEFA and glycemia after myocardial ischaemia-reperfusion; format: in vivo, mice; details: for Triglyceride / Glycemia Post-Reperfusion / Total Cholesterol / Glycemia Before Ischemia: 300 μg/kg/day for 2 weeks; for Triglyceride: mean ± S.E.M.; for Glycemia Post-Reperfusion / Total Cholesterol / Glycemia Before Ischemia: mean ± S.E.M. (n)
Source text: Animals. CD36^−/− mice were generated by targeted homologous recombination and backcrossed six times to C57BI/6. Wild-type control littermates (CD36^+/+) were bred from the same cross and were therefore of identical genetic background [Febbraio et al., 2000]. Male mice, aged 23 (±1) weeks, were used for experiments. They were fed standard chow (#5075, Charles Rivers, Saint-Constant, Québec, Canada) and water ad libitum, and housed singly during treatment periods (2 or 10 weeks). Daily pharmacological treatments with 300 μg/kg of EP 80317 or CP1A(IV) or vehicle (0.9% NaCl) were done by subcutaneous (s.c.) injections.
as §1, with “At 6 hours following reperfusion, mice were anesthetized (isoflurane), a blood sample withdrawn, and the heart arrested in diastole by an intravenous injection of 1 M KCl (0.5 mL).” left out, “stated. […]” for “stated.”
Plasma and tissue assays. Plasma insulin, triglyceride (TG) and NEFA levels were measured as previously described [Menard et al., 2009]. In vitro lipolysis was prevented by collecting blood in the presence of 40 mM Orlistat (Calbiochem, San Diego, Calif., USA) and centrifuging rapidly. Plasma and tissue lipids were extracted according to the method described by Folch et al. [Folch et al., 1957]. The non-metabolized fraction of [^18F]-FTHA in plasma was determined using thin-layer chromatography from blood samples taken 2, 3, 5, 10, and 30 min after FTHA injection, and the metabolite corrected plasma curve was calculated by linear interpolation and used to correct the plasma input function (modified from [Ci et al., 2006]). Myocardial mitochondria were extracted with measurement of GDH activity to correct for extraction efficiency [Menard et al., 2009].

[3] = system: CD36^+/+ and CD36^−/− mice; assay: Myocardial metabolic rate of glucose by μPET with [18F]-FDG; format: in vivo; details: 6 hours reperfusion; in words
Protocol: as §1, with “After 30 minutes, the PE10 tubing was removed allowing reperfusion. The lungs were reinflated and the chest wound closed layer by layer before extubation. At 6 hours following reperfusion, mice were anesthetized (isoflurane), a blood sample withdrawn, and the heart arrested in diastole by an intravenous injection of 1 M KCl (0.5 mL). Hearts were immediately frozen at −80° C. unless otherwise stated.” left out
as §2

[4] = 6 h post-reperfusion, CD36^+/+ mice
[5] = 6 h post-reperfusion, CD36^−/− mice
[6] = 48 h post-reperfusion, CD36^+/+ mice
[7] = 48 h post-reperfusion, CD36^−/− mice

With “HAIC-2MeDTrp-DLys-Trp-DPhe-Lys-NH2 [EP 80317]” the “increase of end-systolic ventricular volume” value [1] was 26%, the “increase of end-diastolic ventricular volume” value ([1]; p<0.01) was 31% and the “increase of stroke volume” value ([1]; p<0.01) was 33%. The “effect on plasma TG” value ([2]; 6 or 48 hours following reperfusion, both CD36^+/+ and CD36^−/− mice, in words) was “did not modulate”, the “attenuation of plasma NEFA elevation” value ([2]; 6 hours after reperfusion, CD36-dependent (CD36^+/+ mice), p<0.05 vs vehicle) was 29% and the Triglyceride [2, 4] was 0.35 ± 0.04 mmol/L. For the same substance, the “Glycemia Post-Reperfusion” value [2, 4] was 13.6 ± 1.2 (20) mmol/L, the “Total Cholesterol” value [2, 4] was 1.4 ± 0.3 (4) mmol/L and the Triglyceride [2, 5] was 0.58 ± 0.16 mmol/L. The “Glycemia Post-Reperfusion” value [2, 5] was 8.8 ± 0.6 (17) mmol/L, the “Total Cholesterol” value [2, 5] was 1.9 ± 0.1 (5) mmol/L and the “effect on plasma NEFA levels” value ([2]; 48 hours after reperfusion, in words) was “no effect”. The Triglyceride [2, 6] was 0.44 ± 0.03 mmol/L, the “Total Cholesterol” value [2, 6] was 1.5 ± 0.03 (6) mmol/L and the Triglyceride [2, 7] was 0.55 ± 0.06 mmol/L. The “Total Cholesterol” value [2, 7] was 2.5 ± 0.2 (4) mmol/L, the “Glycemia Before Ischemia” value ([2]; CD36^+/+ mice) was 10.6 ± 0.4 (15) mmol/L and the “Glycemia Before Ischemia” value ([2]; CD36^−/− mice) was 9.3 ± 0.5 (8) mmol/L. The “myocardial metabolic rate of glucose (MMRG)” value [3] was “not modulated”.
